Assay results from patent US20230119002A1, “COMPOSITIONS AND METHODS CONTAINING REDUCED NICOTINAMIDE RIBOSIDE FOR PREVENTION AND TREATMENT OF CARDIOVASCULAR DISEASES AND CONDITIONS” (SOCIETE DES PRODUITS NESTLE S.A., priority 2020, published 2023).
Counter-ions that a name gives are not always drawn.

Tests used:
AML12 hepatocytes = experiment: Intracellular NAD+ levels in AML12 hepatocytes after NRH or NR treatment; assay type: cell-based
Source text: (§1) Levels of NRH and other NAD-related metabolites in biological samples were obtained by using a cold liquid-liquid extraction using a mixture of methanol:water:chloroform in 5:3:5 (v/v), from which the polar phase was recovered for hydrophilic interaction ultra-high performance liquid chromatography mass spectrometry (UHPLC-MS) analysis. The UHPLC consisted of a binary pump, a cooled autosampler, and a column oven (DIONEX Ultimate 3000 UHPLC+ Focused, Thermo Scientific), connected to a triple quadrupole spectrometer (TSQ Vantage, Thermo Scientific) equipped with a heated electrospray ionisation (H-ESI) source. Of each sample, 2 μL were injected into the analytical column (2.1 mm×150 mm, 5 μm pore size, 200 Å HILICON iHILIC®-Fusion(P)), guarded by a pre-column (2.1 mm×20 mm, 200 Å HILICON iHILIC®-Fusion(P) Guard Kit) operating at 35° C. The mobile phase (10 mM ammonium acetate at pH 9, A, and acetonitrile, B) was pumped at 0.25 mL/min flow rate over a linear gradient of decreasing organic solvent (0.5-16 min, 90-25% B), followed by re-equilibration for a total run time of 30 min. The MS operated in positive mode at 3500 V with multiple reaction monitoring (MRM). The software Xcalibur v4.1.31.9 (Thermo Scientific) was used for instrument control, data acquisition and processing. Retention time and mass detection was confirmed by authentic standards.
Even at such relatively low dose, NRH achieved similar increases in intracellular NAD+ levels to those reached with NR at 50-fold higher concentrations.
NRH actions were also extremely fast (FIG. 3), as significant increases in NAD+ levels were observed within 5 minutes after NRH treatment.

C2C12 myotubes = experiment: NAD+ levels in C2C12 myotubes after NRH treatment; assay type: cell-based
Method: (§2) The ability of NRH to potently increase NAD+ was tested as well in other cell type models.

INS1-cells = experiment: NAD+ levels in INS1-cells after NRH treatment; assay type: cell-based
Method: as §2

3T3 fibroblasts = experiment: NAD+ levels in 3T3 fibroblasts after NRH treatment; assay type: cell-based
Method: as §2

[1] = tested on: equilibrative nucleoside transporters (ENTs); experiment: NRH-induced NAD+ synthesis with ENT-mediated transport blocked by NBTI; assay type: cell-based; conditions: in the presence of NBTI (ENT blocker)
Source text: In order to understand the exact path by which NRH synthesizes NAD+, we initially evaluated whether NRH, could be transported into the cell by equilibrative nucleoside transporters (ENTs).

NAMPT = target: T1, NAMPT (Mus musculus, UniProt Q99KQ4); experiment: NRH-induced NAD+ synthesis with NAMPT inhibitor FK866; assay type: cell-based
T1 construct: endogenous in cells; AML12 inferred
T1 sequence (Q99KQ4 whole entry): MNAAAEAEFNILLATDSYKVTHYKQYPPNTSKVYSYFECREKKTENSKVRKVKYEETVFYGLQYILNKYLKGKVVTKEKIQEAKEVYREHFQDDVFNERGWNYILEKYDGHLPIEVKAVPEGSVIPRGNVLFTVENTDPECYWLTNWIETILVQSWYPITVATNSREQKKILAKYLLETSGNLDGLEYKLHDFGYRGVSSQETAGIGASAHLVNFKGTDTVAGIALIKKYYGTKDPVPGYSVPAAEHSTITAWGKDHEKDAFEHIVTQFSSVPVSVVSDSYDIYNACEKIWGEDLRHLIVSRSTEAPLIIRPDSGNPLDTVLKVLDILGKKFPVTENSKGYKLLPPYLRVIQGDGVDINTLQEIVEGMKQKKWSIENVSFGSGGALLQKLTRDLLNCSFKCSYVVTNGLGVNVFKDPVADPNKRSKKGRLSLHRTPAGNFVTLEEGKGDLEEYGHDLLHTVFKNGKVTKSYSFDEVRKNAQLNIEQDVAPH

adenosine kinase (AK) = target: T2, adenosine kinase (AK) (Mus musculus, UniProt P55264); experiment: NRH-induced NAD+ synthesis with adenosine kinase inhibitors; assay type: cell-based
T2 construct: endogenous in cells; host or cells: AML12 cells
T2 sequence (P55264 whole entry): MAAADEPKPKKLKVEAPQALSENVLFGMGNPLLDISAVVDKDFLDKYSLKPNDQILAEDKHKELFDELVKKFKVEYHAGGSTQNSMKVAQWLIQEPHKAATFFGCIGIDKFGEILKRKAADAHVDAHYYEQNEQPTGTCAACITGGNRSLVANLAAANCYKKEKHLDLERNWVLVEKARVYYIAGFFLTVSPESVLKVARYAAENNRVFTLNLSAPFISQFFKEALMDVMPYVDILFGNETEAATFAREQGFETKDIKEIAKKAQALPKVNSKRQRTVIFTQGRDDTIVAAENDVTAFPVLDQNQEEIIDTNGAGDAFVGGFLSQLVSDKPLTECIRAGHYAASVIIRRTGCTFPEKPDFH
Method: AML12 cells were treated with an adenosine kinase inhibitor (5-IT; […]) for 1 hour prior to NRH treatment at the doses indicated. Then, 1 hour later, acidic extracts were obtained to measure NAD^+ levels. All values in the figure are expressed as mean+/−SEM of 3 independent experiments. * indicates statistical difference at p<0.05 vs. the respective vehicle treated group.
Considering the molecular structure of NRH, we reasoned that an alternative nucleoside kinase could be responsible for the phosphorylation of NRH. Confirming this expectation, the adenosine kinase (AK) inhibitor 5-iodotubercidin (5-IT) fully ablated the action of NRH. The role of AK in NRH-mediated NAD+ synthesis was confirmed using a second, structurally different, AK inhibitor, ABT-702. Metabolomic analyses further confirmed that upon inhibition of AK, the generation of NMNH, NADH and NAD+ was fully blunted, even if NRH was effectively entering the cell.

NMNAT = experiment: NRH-induced NAD+ synthesis with NMNAT inhibitor gallotannin; assay type: cell-based
Source text: As a follow-up step, NMNAT enzymes could catalyze the transition from NMNH to NADH. […] Yet, part of the NRH action remained after gallotannin treatment when NRH was used at maximal doses.

[2] = Stability in isolated mouse plasma; assay type: in vitro ADME
Source text: as §1
(§3) NR degradation to NAM has been proposed as a limitation for its pharmacological efficacy. To evaluate whether NRH was also susceptible to degradation to NAM, we spiked NRH or NR in isolated mouse plasma. […] We also tested the stability of NRH in other matrixes. […] Finally, we also certified NRH stability in water (pH=7, at room temperature) for 48 h.

[3] = Stability in FBS supplemented media; assay type: in vitro ADME
Method: as §3

[4] = Tissue NAD+ and circulating metabolites after IP injection in mice; assay type: in vivo; conditions: for NAD+ levels in liver, muscle and kidney: after 1 h
Source text: as §1
The above results prompted us to test whether NRH could act as an effective NAD+ precursor in vivo. For this, we first intraperitoneally (IP) injected mice with either NR or NRH (500 mg/kg). […] Importantly, NRH was detectable in circulation after IP injection.

[5] = assay type: in vivo, mice
Method: 8 week-old C57BI/6NTac mice were orally gavaged with either saline (as vehicle), NR (500 mg/kg) or NRH (500 mg/kg). After 1 hour, liver, skeletal muscle and kidney NAD^+ levels were evaluated. All results are expressed as mean+/−SEM of n=5 mice per group. * indicates statistical difference at p<0.05 vs. vs. saline-treated mice. # indicates statistical difference at p<0.05 vs. NR treated mice.
as §1
Oral administration of NRH led to very similar results to those observed after IP administration. […] NRH was detectable in plasma 1 h after oral administration. In contrast, NR levels were undetectable at 1 h after NR administration.

zebrafish embryos = experiment: Doxorubicin-induced toxicity in zebrafish larvae; assay type: in vivo; conditions: Doxorubicin 25 uM with NRH 500 uM, up to 60 h
Method: 1 day post fertilization zebrafish embryos were placed in 24 well plates and treated with Doxorubicin (25 uM), either alone or in combination with NRH (500 uM). Untreated group was exposed to DMSO (0.05%). Health of the larvae was monitored frequently, and dead larvae were scored overtime, up to 60 h treatment. Results are expressed as percent of survival of n=60 embryos per group. Statistics represented were calculated by pairwise comparison using log-rank test and p-value adjustment was performed by Bonferroni correction. p-Value for median survival of untreated vs Doxorubicin <0.0001, p-value Doxorubicin vs Doxorubicin+NRH <0.0001.
Doxorubicin is a chemotherapeutic agent that is well established to be cardiotoxic. This drug has also been described to induce cardiomyopathy in zebrafish larvae. 1 day post fertilization zebrafish embryos were placed in 24 well plates and treated with Doxorubicin (25 uM), either alone or in combination with NRH (500 uM). Untreated group was exposed to DMSO (0.05%). Health of the larvae was monitored frequently, and dead larvae were scored overtime, up to 60 h treatment. Results are expressed as percent of survival of n=60 embryos per group.

zebrafish larvae = experiment: Ethanol-induced cardiac edema in zebrafish larvae; assay type: in vivo; conditions: 2% Ethanol during 20 h, NRH 500 uM co-treatment, 3 days post fertilization
Method: Phenotypic scoring of cardiac edema severity in zebrafish larvae at 3 days post fertilization exposed to 2% Ethanol during 20 h with or without NRH (500 uM) co-treatment (untreated, n=60; Ethanol, n=73; Ethanol +NRH, n=72). Statistics represented were calculated by non-parametric Chi-square test without p-value adjustment. **** p-Value<0.0001, * p-Value=0.0275.
Phenotypic scoring of cardiac edema severity in zebrafish larvae at 3 days post fertilization exposed to 2% Ethanol during 20 h with or without NRH (500 uM) co-treatment (untreated, n=60; Ethanol, n=73; Ethanol+NRH, n=72). This indicates NRH protects against ethanol-induced cardiac edema in Zebrafish.

H9C2 cardiomyocytes = experiment: Oxidative stress-induced cardiomyocyte cell death; assay type: cell-based; conditions: H2O2 0.25 mM or 0.5 mM for 24 hours, NRH 0.1 mM
Method: H9C2 cardiomyocytes were differentiated for 6 days and then were treated with hydrogen peroxide (H2O2; at either 0.25 mM or 0.5 mM) for 24 hrs in the presence or absence of NRH (0.1 mM). PBS was used as vehicle for NRH. After 24 hrs, cell viability was evaluated by lumiscence using a commercial kit (Cell Title-Glow; Promega). All results are expressed as meand+/−SEM of n=6 experiments. * indicates P<0.05 vs. the respective vehicle treated group.
H9C2 cardiomyocytes were differentiated for 6 days and then were treated with hydrogen peroxide (H2O2; at either 0.25 mM or 0.5 mM) for 24 hours in the presence or absence of NRH (0.1 mM). PBS was used as vehicle for NRH. After 24 hours, cell viability was evaluated by lumiscence using a commercial kit (Cell Title-Glow; Promega).

NRK1 = experiment: NAD+ levels in primary hepatocytes from control or NRK1 knockout mice; conditions: 1 hour of treatment, NRK1 knockout mouse hepatocytes

NC(=O)C1=CN([C@@H]2O[C@H](CO)[C@@H](O)[C@H]2O)C=CC1 [NRH]
intracellular NRH and NMNH (AML12 hepatocytes; 5 minutes after treatment): could be detected | concentration of maximal effects on NAD+ synthesis (AML12 hepatocytes; AML12 hepatocytes): around the millimolar range | time to significant increase in NAD+ levels after treatment (AML12 hepatocytes; AML12 hepatocytes (FIG. 3)): ≤ 5 min | NR concentration needed for similar increase in intracellular NAD+, relative to NRH (AML12 hepatocytes; AML12 hepatocytes, NRH at 10 μM): 50 fold | increase of intracellular NAD+ levels at maximal effect (AML12 hepatocytes; AML12 hepatocytes, around the millimolar range): more than 10 fold | ability to increase intracellular NAD+ (AML12 hepatocytes; AML12 hepatocytes, compared with NR): superior to that of NR | concentration at which NAD+ levels were significantly increased (AML12 hepatocytes; AML12 hepatocytes, dose-response (FIG. 2)): 10 µM | increase in intracellular NR and NMN (AML12 hepatocytes; after NRH treatment, compared with NR treatment): greater than that triggered by NR itself | NAD+ levels (C2C12 myotubes): highly elevated | NAD+ levels (INS1-cells): highly elevated | NAD+ levels (3T3 fibroblasts): highly elevated | capacity as extracellular NAD+ precursor [1]: largely lost its capacity | dependence of action on NAMPT (NAMPT): NAMPT-independent | formation of NR and NMN after NRH treatment with 5-IT (adenosine kinase (AK); 5-IT treatment): prevented the formation of NR and NMN | action of NRH on NAD+ with 5-iodotubercidin (5-IT) (adenosine kinase (AK); AML12 cells, 5-IT 10 mM for 1 hour prior to NRH, NAD+ 1 hour later): fully ablated | generation of NMNH, NADH and NAD+ upon inhibition of AK (adenosine kinase (AK); metabolomic analyses): fully blunted | role of AK in NRH-mediated NAD+ synthesis with ABT-702 (adenosine kinase (AK); second, structurally different AK inhibitor): confirmed | NAD+ synthesis after NRH treatment with gallotannin (NMNAT; NMNAT inhibitor gallotannin, part of action remained at maximal doses (0.5 mM)): largely compromised | NRH action with gallotannin at submaximal doses (NMNAT; submaximal NRH doses): totally blocked | NR production on incubation in isolated plasma [2]: did not lead to NR production | degradation to NAM in FBS supplemented media [3]: did not degrade to NAM | NAD+ levels in liver, muscle and kidney ([4]; mice, IP 500 mg/kg): increased | NAM levels in circulation ([4]; mouse, in vivo, ip, 500 mg/kg): only a very mild increase | NR in circulation after NRH treatment versus after NR injection ([4]; mouse, in vivo, ip, 500 mg/kg): much higher levels | NRH in circulation ([4]; mouse, in vivo, ip, 500 mg/kg): detectable | effect on hepatic NAD+ levels ([5]; mice, oral administration, compared with NR): more potent effect | NRH concentration in plasma ([5]; mouse, in vivo, po): 11.16 ± 1.74 µM | administered compound in plasma ([5]; mouse, in vivo, po): detectable | survival under doxorubicin induced toxicity (zebrafish embryos): rescues | cardiac edema severity (phenotypic scoring) (zebrafish larvae): protects | cell viability under oxidative stress (H9C2 cardiomyocytes): protects

NC(=O)c1ccc[n+]([C@@H]2O[C@H](CO)[C@@H](O)[C@H]2O)c1 [NR, 1-b-D-ribofuranosyl-3-pyridinecarboxamide salt, reference compound]
compound levels in isolated mouse plasma ([2]; spiked, 2 h of incubation): decayed | generation of NAM in isolated mouse plasma ([2]; spiked, 2 h of incubation): increase in NAM | degradation to NAM in FBS supplemented media [3]: occurs | NAM levels in circulation ([4]; mice, IP 500 mg/kg): highly increased | NAD+ levels in liver, muscle and kidney ([4]; mice, IP 500 mg/kg): increased | circulating NAM after NR relative to after NRH treatment ([5]; C57BI/6NTac, mouse, in vivo, po, 1 h): ~4 fold | administered compound in plasma ([5]; mouse, in vivo, po): undetectable | circulating NAM ([5]; mouse, in vivo, po): large increases | NAD+ levels in NRK1KO derived primary hepatocytes (NRK1): failed to increase NAD+ levels
